We go through three molecules from US8039453B2, “Vinca derivatives” (priority 2006, dated 2011).

The structures appear in SMILES notation. Read-outs that look alike come from different tables or passages of the source.

The subject of this test is HeLa S-3 human cervical carcinoma cell line. In words: HeLa GI50 determination (SRB growth inhibition). It counts as cell-based. The following applies: HeLa S3, 48 h, read-out: HeLa Cells GI50. Here is the method: A. HeLa GI50 Determinations
Growth inhibition (GI50) values were measured on the human cervical carcinoma cell line, HeLa S-3, which were selected for growth on plastic. The HeLa cell assay was based on the description of Skehan et al., J. Natl. Cancer Inst., 82:1107-12 (1990), which is hereby incorporated by reference in its entirety. HeLa cells were plated at 2×10^4 cells/well in 96 well plates. One day later, a control plate was fixed by the addition of TCA to 5%. After five rinses with tap water, the plate was air-dried and stored at 4° C. Test compounds were added to the remaining plates at 10-fold dilutions. Two days later, all plates were fixed as described above. Cells were then stained by the addition of 100 μL per well of 0.4% sulforhodamine B (SRB) in 1% acetic acid for 30 min at 4° C. Wells were then quickly rinsed 5× with 1% acetic acid and allowed to air dry. The SRB was then solubilized by the addition of 100 μL per well of unbuffered 10 mM Tris base. Dye was quantified by measuring absorbance at 490 nm on a Molecular Devices microplate reader. Growth inhibition was calculated according to the following equation: GI=100×(T−T0)/(C−T0), where the optical density (OD) of the test well after 2 days of treatment was T, the OD of the wells in the control plate on day 0 was T0 and C was the OD of untreated wells. Plots of percent growth inhibition versus inhibitor concentration were used to determine the GI50.

[1] abbreviates: HeLa S-3 cells, 2 days of treatment, sulforhodamine B staining.

`CCc1ccc2[nH]c3c(c2c1)CCN1CC(C(C)(F)F)C[C@@H](C1)C[C@]3(C(=O)OC)c1cc2c(cc1OC)N(C)[C@H]1[C@@](O)(C(=O)OC)[C@H](OC(C)=O)[C@]3(CC)C=CCN4CC[C@]21[C@@H]43` (stereo partly drawn) [Example 3, 12′-Ethyl-4′-deoxy-20′,20′-diflurovincaleukoblastine]: the concentration for 50% growth inhibition (GI50) under setting [1] was above 1000 nM.

As to `CC[C@]12C=CCN3CC[C@@]4(c5cc([C@@]6(C(=O)OC)C[C@H]7CC(C(C)(F)F)CN(CCc8c6[nH]c6ccc(-c9ccccc9)cc86)C7)c(OC)cc5N(C)[C@H]4[C@@](O)(C(=O)OC)[C@@H]1OC(C)=O)[C@@H]32` (stereo partly drawn) [Example 6, 12′-Phenyl-4′-deoxy-20′,20′-diflurovincaleukoblastine], the GI50 was 23100 nM. Take `CC[C@]12C=CCN3CC[C@@]4(c5cc([C@@]6(C(=O)OC)C[C@H]7CC(C(C)(F)F)CN(CCc8c6[nH]c6ccc(SC)cc86)C7)c(OC)cc5N(C)[C@H]4[C@@](O)(C(=O)OC)[C@@H]1OC(C)=O)[C@@H]32` (stereo partly drawn) [Example 12, 12′-(Methylsulfanyl)-4′-deoxy-20′,20′-diflurovincaleukoblastine]: the 50% growth inhibitory concentration (GI50) under setting [1] was found to be 93 nM.

As usually defined, the GI50 is the concentration at which growth is held to half of that of the control.
